Key:
[1] = tested on: γ-secretase cleavage of rat EphA4 with HA tag in HEK293 cells; test: EphA4 processing in EphA4-HA transfected 293/EBNA-1 cells, Western blot with anti-HA antibody; type: cell-based; conditions: Compound E 50 nM, one day, EphA4-HA transfected 293/EBNA-1 (HEK293) cells
Description: Whether or not EphA4 is a substrate for γ-secretase was evaluated using HEK293 cells expressing EphA4 with an HA tag added to its C-terminus, in the presence of a γ-secretase inhibitor. As the γ-secretase inhibitor, (2S)-2-{[(3,5-difluorophenyl)acetyl]amino}-N-[(3S)-1-methyl-2-oxo-5-phenyl-2,3-dihydro-1H-1,4-benzodiazepin-3-yl]propanamide (hereinafter, sometimes referred to as “Compound E”) (Alexis Biochemicals) was used.
293/EBNA-1 cell strain (Invitrogen) was cultured in 10% FBS (Hyclone)/DMEM (Invitrogen) under 5% CO2 at 37° C., followed by transfection thereinto of a gene encoding rat EphA4 with an HA tag added to its C-terminus with Lipofectamine 2000 (Invitrogen). After one day culture under the same conditions, Compound E (γ-secretase inhibitor, Alexis Biochemicals) was added to the medium (final concentration: 50 nM). Cells were cultured for another day under the same conditions. Then, the transfected HEK293 cells were collected with PBS (Sigma) and sonicated with a sonicator (Taitec VP-5S) to disrupt cells. Then, the quantity of protein was determined with Protein Assay Kit (BioRad). Samples (2 μg each) were taken from proteins obtained from Compound E-added cells and Compound E-not added cells, respectively, and subjected to SDS-PAGE, followed by Western blotting with an anti-HA antibody (Roche) (final concentration: 0.2 μg/ml). […]

[2] = tested on: γ-secretase cleavage of EphA4 in rat hippocampal neurons; test: EphA4 processing in primary culture of rat hippocampal neurons, Western blot with anti-EphA4 antibody; type: cell-based; conditions: Compound E 50 nM, one week
Description: Whether or not EphA4 is a substrate for γ-secretase was evaluated using a primary culture of rat hippocampal neurons in the presence of a γ-secretase inhibitor. As the γ-secretase inhibitor, (2S)-2-{[(3,5-difluorophenyl)acetyl]amino}-N-[(3S)-1-methyl-2-oxo-5-phenyl-2,3-dihydro-1H-1,4-benzodiazepin-3-yl]propanamide (Compound E) (Alexis Biochemicals) was used.
The hippocampus was isolated from embryonic day 18 SD rats (Charles River) and subjected to culture. Specifically, embryos were removed aseptically from pregnant rats under etherization. The brain was removed from each embryo and dipped in 20% FBS (Hyclone)/HBSS (Sigma). The hippocampus was collected from the thus obtained brain under a stereomicroscope. The collected hippocampus was treated in an enzyme solution containing 0.25% trypsin (Invitrogen) and 0.5 mg/ml DNase (Sigma) at 37° C. for 10 minutes to disperse cells. This enzyme reaction was terminated by adding 20% FBS (Hyclone)/HBSS (Sigma). Then, 2 ml of HBSS (Sigma) was added to the resultant cells. The HBSS-added cell mass was re-dispersed by gentle pipetting. The resultant neuron suspension was diluted with a medium and plated in 10 cm dishes at an initial cell density of 1.5×10^6 cells/dish. […] Then, cells were collected with PBS and subjected to quantitative determination of protein. […]

Compound: C[C@H](NC(=O)Cc1cc(F)cc(F)c1)C(=O)N[C@H]1N=C(c2ccccc2)c2ccccc2N(C)C1=O [Compound E, (2S)-2-{[(3,5-difluorophenyl)acetyl]amino}-N-[(3S)-1-methyl-2-oxo-5-phenyl-2,3-dihydro-1H-1,4-benzodiazepin-3-yl]propanamide]
- accumulation of EphA4 CTF band around 50 kDa (EphA4 undegraded product) [1]: a band around 50 kDa (CTF) was accumulated specifically
- accumulation of EphA4 CTF band around 50 kDa [2]: a band around 50 kDa (CTF) was accumulated specifically
